For data set [1] the following is noted: oral formulation of PB; cited from earlier work.
For data set [2], the system named is HDAC. To be noted: literature statement, cited from earlier work.
Data set [3] has as its system solid and hematological tumors. To be noted: cited from earlier work.
The subject of data set [4] is TRX. Briefly: Western blot of TRX protein in WI38. It is filed as cell-based, human. To be noted: WI38 cultured with 5 μmol/l SAHA, FIG. 4B. Here is the method:
(§1) Typically, whole cell lysates were prepared using a buffer (50 mM Tris-HCL pH 8, 300 mM NaCl, 5 mM EDTA, 0.5% NP-40, inhibitor pellet from Roche). Next, 10-25 μg of cell extract were subjected to standard SDS-poly acrylamide gel electrophoresis using 10%, 15%, and 18% criterion gels (Bio-Rad). After transferring to PVDF membrane (Amersham Biosciences), the membranes were blocked with 5% BSA PBS-Tween (0.1%). The membranes were then incubated with specific primary antibody and horseradish peroxidase-labeled secondary antibody. Immunoprecipitation was based on the protocol of Santa Cruz Biotechnology. Briefly, 100-500 μg of total cellular protein were applied and incubated with protein agarose (Ausubel, F. M., et al. Current Protocols in Molecular Biology. 10.16 John Wiley & Sons. 2001).
(§2) TBP-2 antiserum was generated in rabbits (Pocono Farms) using following sequence (peptide) CYM DVI PED HRL ESP (SEQ ID NO:7). Anti-TRX was prepared in the laboratory of Dr. Arne Holmgren (Karolinska institute) as a goat polyclonal antibody. Anti-tubulin was purchased from Oncogene.
(§3) TBP-2 has been identified as a protein that associates with the active (reduced) form of TRX, a dithiol-reducing redox regulatory protein (Nishiyama, A., et al., 1999, J. Biol. Chem. 274, 21645-21650). Binding of TBP-2 to TRX both inhibits the thiol-reducing activity and reduces the level of expression of TRX. […]
A general note: A western blot detects proteins with antibodies after separation by electrophoresis.

The test system of data set [5] is WI38 (human lung fibroblast). Briefly: Cell growth (cell number, trypan blue / Guava). It is filed as cell-based. To be noted: WI38 cells, FIG. 2B. From the text:
(§4) HeLa (human cervical carcinoma), WI38 (human lung fibroblast), WI38-VA13 (SV-40 transformed human lung fibroblast), MCF-7 (human breast adenocarcinoma), T-24 human bladder transitional cell carcinoma), and LNCAP (human prostate adenocarcinoma) were obtained from the American type culture collection and cultured in accordance with the instructions. ARP-1 (human multiple myeloma) was generously provided by Dr. J. Hardoc (Arkansas Cancer Research Center, Little Rock) and cultured as indicated by the source.
(§5) Cells were harvested by trypsinization. Cell number and viability were measured by trypan blue dye exclusion and by Guava PCA-96 via count flex reagent according to the manufacturer's instruction (Guava).

The subject of data set [6] is WI38-VA13 (SV-40 transformed human lung fibroblast). Briefly: Cell growth (cell number, trypan blue / Guava). It counts as cell-based. Conditions: VA13 cells, FIG. 2A.
Source text: as §4, §5

The subject of data set [7] is WI38 (human lung fibroblast). Briefly: SAHA-induced apoptosis / viability. It counts as cell-based. To be noted: normal fibroblast WI38 cells, FIGS. 2-3.
Source text: as §4, §5

For data set [8], the system named is WI38-VA13 (SV-40 transformed human lung fibroblast). Briefly: SAHA-induced apoptosis / viability. It is filed as cell-based.
Source text: as §4, §5

For data set [9], the system named is TRX. Briefly: Northern blot of TRX mRNA in WI38. To be noted: WI38 cultured with 5 μmol/l SAHA, FIG. 4A. It counts as cell-based, human. The method, then: Cells were cultured and recovered by centrifugation and RNA was prepared as described (Richon, V. M., et al., 1996, Proc. Natl. Acad. Sci. USA. 93:5705-5708). Total RNA (10 μg) was analyzed by northern blotting using a ^32P-labeled 1.1-kb TBP-2 coding region cDNA probe or a 500 bp cDNA probe for human TRX (Butler et al., 2002, Proc. Natl. Acad. Sci. USA 99:11700-11705). Loading was determined using a ^32P labeled 50-mer 18s rRNA oligonucleotide.

For data set [10], the system named is tumor growth. To be noted: animals; cited from earlier work.
Data set [11] has as its system acetylated histones in PMN cells. To be noted: following a single oral dose; cited from earlier work.
The subject of data set [12] is TRX. Briefly: Western blot of TRX protein in VA13. It counts as cell-based, human. To be noted: VA13 cultured with 5 μmol/l SAHA, FIG. 4B. The method, then: as §1, §2, §3
The conditions of data set [13]: phase I; cited from earlier work.
Data set [14] concerns acute myelogenous leukemia. Conditions: a patient with acute myelogenous leukemia; cited from earlier work.
The test system of data set [15] is non-small cell lung cancer. To be noted: Phase II, cited from earlier work.
In data set [16] the test system is metastatic renal cell carcinoma. Conditions: Phase II; cited from earlier work.

Where two headings read alike, the source gives them in different places.

Consider `O=C(O)CCCc1ccccc1` [phenyl butyrate, Phenyl Butyrate], for which, in data set [1], the “biologic active plasma concentrations reached” value is recorded as 0.5 mM and the oral bioavailability entry is given as “good bioavailability”. Moreover, the “HDAC inhibitory potency (level of activity)” value (“HDAC inhibitory potency” below) in data set [2] is “millimolar levels of activity”.
Take `O=C(CCCCCCC(=O)Nc1ccccc1)NO` [SAHA, suberoylanilide hydroxamic acid]: the drug related deaths entry in data set [3] (oral SAHA, patients) is listed as “no drug related deaths”. The “longest duration of therapy (durable responses)” value in data set [3] (oral SAHA, patients) was “over 18 months”. Further, the oral bioavailability entry in data set [3] (oral formulation of SAHA) is “good oral bioavailibity”. In addition, the TRX protein levels result is on record as “increased significantly” in [4] and “quickly decrease to undetectable levels” in data set [12]. The SAHA dose that induces growth arrest in data set [5] and in data set [6] was at least 2.5 µM in each case. Besides, in data set [7], the apoptosis result was “little or no apoptosis”. The “growth arrest and apoptosis” value in [8] (transformed VA13, FIGS. 2-3) was “induced growth arrest and apoptosis”. In addition, the “SAHA concentration sufficient to induce significant apoptosis” value in data set [8] (transformed cells, after 24-48 hours of SAHA treatment, FIG. 3A) fell in the range of 1.25 to 2.5 µmol/L. The “TRX mRNA expression” value in data set [9] is given as “increased significantly”. Also, the “toxicity to the animal” value in data set [10] is listed as “no toxicity”. In addition, the “persistence of accumulation of acetylated histones in PMN cells” value in data set [11] was “up to 10 hrs”.
Consider `C/C=C1\NC(=O)[C@H]2CSSCC/C=C/[C@H](CC(=O)N[C@H](C(C)C)C(=O)N2)OC(=O)[C@H](C(C)C)NC1=O` [depsipeptide], for which the “HDAC inhibitory potency” value in data set [2] is “active at nanomolar levels”; in data set [2] (listed as Depsipeptide), “inhibits HDACs at nanomolar concentrations”.
As for `O=C(/C=C/c1ccc(CN(CCO)CCc2c[nH]c3ccccc23)cc1)NO` [LAQ824], the “HDAC inhibitory potency” value in data set [2] is “nanomolar inhibitor”.
As for `Nc1ccccc1NC(=O)c1ccc(CNC(=O)OCc2cccnc2)cc1` [MS-275, N-(2-aminophenyl)-4-[N-(pyridin-3-yl-methoxycarbonyl)aminomethyl] benzamide], the “HDAC inhibitory potency” value in [2] was “less potent than the corresponding hydroxamates and cyclic tetrapeptides”. The half-life entry in data set [13] is listed as “longer than expected”.
On to `CCCC(CCC)C(=O)O` [valproic acid, Valproic Acid], for which the clinical response entry in [14] is recorded as “transient partial remission”. Also, the “HDAC inhibitory potency” value in data set [2] is “millimolar levels of activity”.
In the case of `CC(=O)Nc1ccc(C(=O)Nc2ccccc2N)cc1` [CI-994], the “patients having a partial response to therapy” value in data set [15] (32 patients) is given as 7%. Also, the “patients having stable disease for over 8 weeks” value in data set [15] was 28%. The “patients with stable disease for greater than 8 weeks” value in data set [16] is on record as 58%. In addition, the “HDAC inhibitory potency” value in data set [2] was “less potent than the corresponding hydroxamates and cyclic tetrapeptides”.

Source of the values: patent publication US20050288227A1, “Use of thioredoxin measurements for diagnostics and treatments” (priority 2002, published 2005).
